Measured values: patent US20120202756A1, “USE OF PRODRUGS TO AVOID GI MEDIATED ADVERSE EVENTS” (priority 2009, published 2012)
Converted amounts (≈) assume the structure as drawn. Read-outs that look alike come from different tables or passages of the source.

Key:
[1] = Stability in USP simulated gastric juice; type: in vitro ADME; conditions: USP SGF pH 1.1, pepsin […], prodrug 20 μg/mL
From the text: To minimize the direct inhibitory action of this drug on gastric emptying/gut motility—and resultant nausea—the prodrug should not undergo premature chemical or enzymic cleavage back to the parent drug while within the gut lumen.

[2] = Stability in simulated intestinal juice (FaSSIF); type: in vitro ADME; conditions: FaSSIF pH 6.5, pancreatin 1%, prodrug 20 μg/mL
Protocol: (§1) To avoid direct interaction between the active drug and the gut microfloral population, the prodrug should not undergo premature chemical or enzymic cleavage back to the parent dug while within the gut lumen. To confirm this the prodrugs were incubated with USP SGF (simulated gastric fluid), FeSSIF (fed state simulated intestinal fluid) and FaSSIF (fasted state simulated intestinal fluid) and remaining prodrug and any generated active drug assayed by use of a qualified LC-MS/MS analytical method.
(§2) Method—Prodrug (20 μg/mL) in the FaSSIF cocktail comprising sodium taurocholate 3 mM, lecithin 0.75 mM, NaOH 8.7 mM, NaH2PO4. H2O 28.7 mM, NaCl 106 mM, pancreatin 1% (overall pH 6.5) was incubated for 2 h at 37° C. After acidifying the incubation to stop any reaction the amount of prodrug remaining and drug generated were determined using a qualified LC-MS/MS method.
(§3) To minimize the direct inhibitory action of this drug on gastric emptying/gut motility—and resultant nausea—the prodrug should not undergo premature chemical or enzymic cleavage back to the parent drug while within the gut lumen. To confirm this, the prodrugs were incubated with USP SGF (simulated gastric fluid), FeSSIF (fed state simulated intestinal fluid) and FaSSIF (fasted state simulated intestinal fluid) and remaining prodrug, and any generated active drug, assayed by use of a qualified LC-MS/MS analytical method.
as §2, with “Prodrug” for “Method—Prodrug”
as §1, with “gut,” for “gut microfloral population,”

[3] = Stability in simulated intestinal juice (FeSSIF); type: in vitro ADME; conditions: FeSSIF pH 5.0, pancreatin 1%
Protocol: as §1
Pancreatin was again added at 1%.
as §3
as §1, with “gut,” for “gut microfloral population,”

[4] = male rats; for Frel: relative bioavailability of donepezil vs dosing donepezil itself, mean
Protocol: Serial tail vein blood samples were subsequently collected via an indwelling cannuala into EDTA tubes containing a stabilising cocktail (including 6 mg/mL NaF) to prevent post collection enzymic hydrolysis of the prodrug.

[5] = test system: Bacteroides thetaiotamicron; test: MIC agar dilution; type: cell-based
[6] = test system: Bifidobacterium adolescentis; test: MIC agar dilution; type: cell-based; conditions: NCTC11814
Bifidobacterium dentium = test: MIC agar dilution; type: cell-based; conditions: NCTC11816
Bifidobacterium longum = test: MIC agar dilution; type: cell-based; conditions: NCTC11818
Clostridium bifermentans = test: MIC agar dilution; type: cell-based; conditions: Paraclostridium bifermentans, ATCC638
Clostridium difficile = test: MIC agar dilution; type: cell-based; conditions: Clostridioides difficile
Clostridium novyi = test: MIC agar dilution; type: cell-based; conditions: ATCC19402
Clostridium perfringens = test: microbe, parasite or virus in culture; type: cell-based
Clostridium sordellii = test: MIC agar dilution; type: cell-based; conditions: Paraclostridium sordellii, NCTC13356; NCTC 13356
Clostridium sporogenes = test: MIC agar dilution; type: cell-based; conditions: ATCC3584, ATCC 3584
Eggerthella lenta = test: MIC agar dilution; type: cell-based; conditions: ATCC43055, ATCC 43055
[7] = test system: Fusobacterium necrophorum; test: MIC agar dilution; type: cell-based; conditions: clinical isolate
[8] = test system: Peptostreptococcus anaerobius; test: MIC agar dilution; type: cell-based; conditions: NCTC11460
[9] = test system: Peptostreptococcus magnus; test: MIC agar dilution; type: cell-based; conditions: Finegoldia magna; clinical isolate
[10] = test system: Peptostreptococcus micros; test: MIC agar dilution; type: cell-based; conditions: Parvimonas micra; clinical isolate
[11] = test system: Porphyromonas assacharolyticus; test: MIC agar dilution; type: cell-based; conditions: clinical isolate
[12] = test system: Porphyromonas endodontalis; test: MIC agar dilution; type: cell-based; conditions: clinical isolate
Prevotella bivia = test: MIC agar dilution; type: cell-based; conditions: ATCC29303, ATCC 29303
Prevotella denticola = test: MIC agar dilution; type: cell-based; conditions: clinical isolate
Veillonella atypical = test: MIC agar dilution; type: cell-based; conditions: NCTC11830
Veillonella parvula = test: MIC agar dilution; type: cell-based; conditions: NCTC11810
Veillonella spp. = test: MIC agar dilution; type: cell-based; conditions: clinical isolate
[13] = Bioavailability of metronidazole from its prodrugs in the rat; conditions: male, Sprague Dawley, rat, in vivo, po
Protocol: In order to confirm successful absorption and subsequent hydrolysis of these metronidazole prodrugs, a comparative bioavailability study was undertaken in the rat Methods—Three groups of five male Sprague Dawley rats were orally dosed with either metronidazole itself or its succinyl valine or glutaryl para-amino benzoic acid ester prodrugs. Serial tail vein blood samples were subsequently collected via an indwelling cannuala into EDTA tubes containing a stabilising cocktail (including 6 mg/mL NaF) to prevent post collection enzymic hydrolysis of the prodrug. Separated plasma samples were subjected to bioanalysis for both the prodrugs and metronidazole itself using a qualified LC/MS-MS bioanalytical method.

Bacteroides fragilis = test: MIC agar dilution
Propionibacterium acnes = test: MIC agar dilution
Campylobacter coli = test: MIC agar dilution
Campylobacter jejuni = test: MIC agar dilution
Helicobacter pylori = test: MIC agar dilution
hNav1.1 channel = molecular target: T1, hNav1.1 channel (Homo sapiens, UniProt P35498); test: Blockade of cloned Nav1.1 channels expressed in mammalian cells; type: cell-based
T1 construct: expressed in transfected cells
Protocol: Blockade of hNav1.1 channel was measured using a stimulus voltage pattern shown in the diagram below: Voltage potentials are indicated in Table 13. The pulse pattern was repeated twice: before and 5 minutes after TA addition and peak current amplitudes at three test pulses were measured (ITP1, TP11 and ITP12).
Data acquisition and analyses was performed using the lonWorks Quattro™ system operation software (version 2.0.2; Molecular Devices Corporation, Union City, Calif.). Data was corrected for leak current.
The tonic block was calculated as:
% Block (Tonic)=(1−ITP1,TA/ITP1,Control)×100%,
10 Hz Block—the frequency-dependent block at stimulation frequency 10 Hz was calculated as:
% Block (10 Hz)=(1−ITP11, TA/ITP11, Control))×100%,
We define the inactivation state block as decrease in test pulse (TP12) current amplitude due to the conditioning depolarizing pulse (TP11). The inactivation state block was calculated as:
% Block (inactivation state)=(1−(ITP12, TA/[…])×100%,
Concentration-response data for the blocks were fit to an equation of the following form: […]
where [Test] is the concentration of test article, IC50 is the concentration of the test article producing half-maximal inhibition, N is the Hill coefficient, and % Block is the percentage of ion channel current inhibited at each concentration of the test article. Nonlinear least squares fits were solved with the Solver add-in for Excel 2000 (Microsoft, Redmond, Wash.).

[14] = % of treated patients, cited from earlier work
[15] = frequency-dependent block at 10 Hz (TP11), read-out: IC50 10 Hz block
[16] = inactivation state block (TP12), read-out: IC50 Inactivated state
[17] = tonic block (TP1), read-out: IC50 Tonic block

In the case of `CCOC(=O)c1ccc(NC(=O)CCCC(=O)OC2=C(CC3CCN(Cc4ccccc4)CC3)Cc3cc(OC)c(OC)cc32)cc1` [Donepezil glutaryl PABA ethyl ester, donepezil[glutaryl-PABA ethyl ester]enol ester], the “Simulated gastric juice (1 h, 37° C.) % active drug generated” value [1] is reported as 2%, the “Simulated intestinal juice (2 h, 37° C.) (FaSSIF) % active drug generated” value [2] is reported as 2% and the “Simulated intestinal juice (2 h, 37° C.) (FeSSIF) % active drug generated” value [3] is reported as 1%. The Prodrug plasma levels ([4]; oral) was “undetectable” and the Frel [4] was 30%.

With `CCOC(=O)[C@@H](NC(=O)CCCC(=O)OC1=C(CC2CCN(Cc3ccccc3)CC2)Cc2cc(OC)c(OC)cc21)C(C)C` [Donepezil glutaryl valine ethyl ester, donepezil[glutaryl-(S)-valineethyl ester]enol ester] the “Simulated gastric juice (1 h, 37° C.) % active drug generated” value [1] was 2%, the “Simulated intestinal juice (2 h, 37° C.) (FaSSIF) % active drug generated” value [2] was 11% and the “Simulated intestinal juice (2 h, 37° C.) (FeSSIF) % active drug generated” value [3] was 3%. For the same compound, the “plasma persistence of donepezil” value ([4]; oral) was “not in evidence” and the Frel [4] was 31%.

With `Cc1ncc([N+](=O)[O-])n1CCOC(=O)CCCC(=O)Nc1ccc(C(=O)O)cc1` [Metronidazole glutaryl PABA ester, Metronidazole-(glutaryl-PABA) ester] the MIC ([5]; ATCC29741) was > 64 µg/mL, the MIC ([5]; NCTC10582) was > 64 µg/mL and the MIC [6] was > 64 µg/mL. The MIC (Bifidobacterium dentium) was > 64 µg/mL, the MIC (Bifidobacterium longum) was > 64 µg/mL and the MIC (Clostridium bifermentans) was 64 µg/mL (≈ 158 µM). It also gave an MIC (Clostridium difficile; ATCC700057, ATCC 700057) of 8 µg/mL (≈ 19.8 µM), an MIC (Clostridium difficile; NCTC13366, NCTC 13366 - NAP1/027) of 16 µg/mL (≈ 39.6 µM) and an MIC (Clostridium difficile; antibiotic-susceptible clinical isolate) of 8 µg/mL (≈ 19.8 µM). The MIC (Clostridium novyi) was 32 µg/mL (≈ 79.1 µM), the MIC (Clostridium perfringens) was > 64 µg/mL and the MIC (Clostridium perfringens; ATCC13124) was > 64 µg/mL. The MIC (Clostridium sordellii) was 64 µg/mL (≈ 158 µM), the MIC (Clostridium sporogenes) was 8 µg/mL (≈ 19.8 µM) and the MIC (Eggerthella lenta) was 32 µg/mL (≈ 79.1 µM). The MIC [7] was 8 µg/mL (≈ 19.8 µM), the MIC [8] was 16 µg/mL (≈ 39.6 µM) and the MIC [9] was 16 µg/mL (≈ 39.6 µM). For the same compound, the MIC [10] was 8 µg/mL (≈ 19.8 µM), the MIC [11] was 8 µg/mL (≈ 19.8 µM) and the MIC [12] was 4 µg/mL (≈ 9.89 µM). The MIC (Prevotella bivia) was 32 µg/mL (≈ 79.1 µM), the MIC (Prevotella denticola) was 64 µg/mL (≈ 158 µM) and the MIC (Veillonella atypical) was > 64 µg/mL. The MIC (Veillonella parvula) was > 64 µg/mL, the MIC (Veillonella spp.) was > 64 µg/mL and the Tmax [13] was 2.0 h. The MIC (Bacteroides fragilis) was > 64 µg/mL, the MIC (Bacteroides fragilis; ATCC25285) was > 64 µg/mL and the MIC (Propionibacterium acnes; Cutibacterium acnes) was > 64 µg/mL. For the same compound, the MIC (Propionibacterium acnes; clinical isolate MIC clindamycin 0.5 mg/L) was >64 µg/mL, the MIC (Campylobacter coli) was > 64 µg/mL and the MIC (Campylobacter coli; ATCC33559) was 64 µg/mL (≈ 158 µM). The MIC (Campylobacter jejuni) was > 64 µg/mL, the MIC (Campylobacter jejuni; ATCC33560) was 64 µg/mL (≈ 158 µM) and the MIC (Helicobacter pylori; clinical isolate (first listed, r83)) was 32 µg/mL (≈ 79.1 µM). For the same compound, the MIC (Helicobacter pylori; clinical isolate (second listed, r85)) was 16 µg/mL (≈ 39.6 µM).

In the case of `CCCNCC(COc1ccccc1C(=O)CCc1ccccc1)OC(=O)CCCC(=O)Nc1ccc(C(=O)O)cc1` (stereo not drawn) [Propafenone glutaryl PABA ester, Propafenone (glutaryl-PABA) ester], the IC50 (hNav1.1 channel; [15]) is reported as 96.3 µM, the IC50 (hNav1.1 channel; [16]) is reported as 32.2 µM and the IC50 (hNav1.1 channel; [17]) is reported as 464 µM.

`CCCNCC(COc1ccccc1C(=O)CCc1ccccc1)OC(=O)CCC(=O)N[C@H](C(=O)O)C(C)C` (stereo partly drawn) [Propafenone succinyl valine ester, Propafenone[succinyl-(S)-valine]ester] showed an IC50 (hNav1.1 channel; [15]) of 69.5 µM, an IC50 (hNav1.1 channel; [16]) of 37.2 µM and an IC50 (hNav1.1 channel; [17]) of 151 µM.

For `Cc1cn([C@H]2C=C[C@@H](CO)O2)c(=O)[nH]c1=O` [Stavudine], the incidence of diarrhoea [14] is given as 44% and the “incidence of nausea and vomiting” value [14] is given as 39-44%.

In the case of `CC(C)CN(C[C@@H](O)[C@H](Cc1ccccc1)NC(=O)O[C@H]1CCOC1)S(=O)(=O)c1ccc(N)cc1` [amprenavir], the incidence of diarrhoea [14] is listed as 39%, the incidence of nausea [14] is listed as 74% and the incidence of vomiting [14] is listed as 34%.

In the case of `C#Cc1cccc(Nc2ncnc3cc(OCCOC)c(OCCOC)cc23)c1` [erlotinib], the incidence of diarrhoea [14] is listed as 50-60%.

For `CCCCN1C[C@H](O)[C@@H](O)[C@H](O)[C@H]1CO` [miglustat], the incidence of diarrhoea [14] is listed as “up to 89%”.

For `Cc1ccc(Nc2nccc(N(C)c3ccc4c(C)n(C)nc4c3)n2)cc1S(N)(=O)=O` [pazopanib], the incidence of diarrhoea [14] is listed as ~50% and the incidence of diarrhoea ([14]; listed as pazapanib) is listed as > 50%.

For `COc1ccc(C(CN(C)C)C2(O)CCCCC2)cc1` (stereo not drawn) [venlefaxine, venlafaxine], the incidence of nausea [14] is given as “Up to 30%”.
